Common to all, as to test: relative viability (nuclei count vs DMSO), 5 days (fraction); higher = more cells survive
Compound in assay [1]: C1CNCCC1C2=CC(=NN2)C3=CC=NC=C3 + CC(=O)c1c(C)c2cnc(Nc3ccc(N4CCNCC4)cn3)nc2n(C2CCCC2)c1=O [Palbociclib] (partner 0.5 µM)
The gist of the method: (§1)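 A single step with final 0.05% Triton X-100, 1% formaldehyde and 1 ug/ml Hoechst fixed the cells and stained nuclei 5 days after treatment. Lung cancer cell lines in 1536-well plates had been treated by pin tool the day after seeding with one drug alone or a fixed anchor-drug dose plus five library-drug doses (not always all listed) in √10 steps, and nuclei were counted on 4× images. Relative viability is the ratio of nuclei in treated wells to nuclei in vehicle wells, taken as the median of duplicate plates.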

Compound in assay [2]: C[C@@H](N)c1ccc(C(=O)Nc2ccnc3[nH]ccc23)cc1 + Nc1ncn([C@H]2C[C@H](O)[C@@H](CO)O2)c(=O)n1 [Decitabine] (partner 2 µM)
The procedure, abridged: as §1

Compound in assay [3]: O[C@H]1CC[C@H](Nc2ncc3nc(Nc4c(F)cc(F)cc4F)n([C@H]4CCOC4)c3n2)CC1 [Tanzisertib] + CS(=O)(=O)N1CCN(Cc2cc3nc(-c4cccc5[nH]ncc45)nc(N4CCOCC4)c3s2)CC1 [Pictilisib] (partner 1 µM)
The procedure, abridged:
as §1

Compound in assay [4]: O[C@H]1CC[C@H](Nc2ncc3nc(Nc4c(F)cc(F)cc4F)n([C@H]4CCOC4)c3n2)CC1 [Tanzisertib] + O=C(CCCCCCC(=O)Nc1ccccc1)NO [Vorinostat] (partner 1 µM)
The gist of the method:
as §1

UMC-11: the relative viability in assay [1] (first compound 0.08 µM) worked out at 0.317; in assay [1] (first compound 0.8 µM), 0.343; in assay [1] (first compound 2.53 µM), 0.325; in assay [1] (first compound 8 µM), 0.333; in assay [2] (first compound 0.1265 µM), 0.608; in assay [2] (first compound 0.4 µM), 0.604. The relative viability in assay [2] (first compound 1.265 µM) came out at 0.481; in assay [2] (first compound 4 µM), 0.324; in assay [3] (first compound 0.08 µM), 0.874; in assay [3] (first compound 0.253 µM) it was 0.85; in assay [3] (first compound 0.8 µM) it was 0.909; in assay [3] (first compound 2.53 µM) it was 0.798. Moreover, the relative viability in assay [3] (first compound 8 µM) amounted to 0.711; in assay [4] (first compound 0.08 µM), 0.41; in assay [4] (first compound 0.253 µM), 0.401; in assay [4] (first compound 0.8 µM), 0.438; in assay [4] (first compound 2.53 µM), 0.404; in assay [4] (first compound 8 µM), 0.388.

The values are drawn from the supplement of paper PMC10307832.
